Among the data in patent US20230265151A1, “GIP/GLP1 CO-AGONIST COMPOUNDS” (priority 2020, published 2023) are Emax and EC50 values, retold here.

Where two headings read alike, the source gives them in different places. *1 amine or outer side, *2 acyl side, *3 side chain or, on linkers, in order; H or OH if unused. Where a SMILES comes first, the peptide text is derived from it. Side-chain parts run from the residue outwards. [ ]: non-standard residue; d: D form. The star is where a group is joined. αMePhe(2-F) = C[C@](N)(Cc1ccccc1F)C(=O)O; γGlu = O=C(O)[C@H](CCC(=O)[*:2])N[*:1]; αMeY = C[C@](N)(Cc1ccc(O)cc1)C(=O)O; 4Pal = N[C@@H](Cc1ccncc1)C(=O)O; αMeL = CC(C)C[C@](C)(N)C(=O)O; Lauroyl = CCCCCCCCCCCC(=O)*; Orn = NCCC[C@H](N)C(=O)O; AEEA = NCCOCCOCC(=O)O; Aib = CC(C)(N)C(=O)O

Common to all, as to type: cell-based
Assay [1] concerns the target T1, hGIPR (Homo sapiens, UniProt P48546).
T1 construct: expressed in transfected cells
T1 sequence (P48546 22-466): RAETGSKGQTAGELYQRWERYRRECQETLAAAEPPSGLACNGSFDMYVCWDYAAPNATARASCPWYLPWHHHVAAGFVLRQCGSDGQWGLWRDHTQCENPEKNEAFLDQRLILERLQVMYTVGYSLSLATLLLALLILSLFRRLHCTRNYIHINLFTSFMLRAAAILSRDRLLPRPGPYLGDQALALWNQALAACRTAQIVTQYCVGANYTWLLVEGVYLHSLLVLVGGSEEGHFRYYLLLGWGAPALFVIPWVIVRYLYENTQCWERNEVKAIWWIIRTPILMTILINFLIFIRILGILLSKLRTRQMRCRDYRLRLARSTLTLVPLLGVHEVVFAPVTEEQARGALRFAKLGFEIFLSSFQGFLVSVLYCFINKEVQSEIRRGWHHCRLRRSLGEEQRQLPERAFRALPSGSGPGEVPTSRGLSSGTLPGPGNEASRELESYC
Put plainly: Functional cAMP formation (HTRF) in HEK-293 clonal cells expressing hGIPR, 0.1% bovine casein, without or with 1.0% human serum albumin. The following applies: for Emax: percent of maximal response to GIP(1-42)NH2; for EC50: geometric mean. In short, it runs like this:
(§1)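 Cells were stimulated with peptide for 30 min at 37° C, then lysed in buffer carrying cAMP-d2 and anti-cAMP Eu3+-cryptate for a competitive HTRF read after at least 60 min at room temperature. The 665/620 nm ratio was converted to nM cAMP against a standard curve.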

Assay [2] has as its target hGLP-1R (Homo sapiens, UniProt P43220). Put plainly: Functional cAMP formation (HTRF) in HEK-293 clonal cells expressing hGLP-1R, 0.1% bovine casein, without or with 1.0% human serum albumin. The arrangement: expressed in transfected cells. Particulars: for Emax: percent of maximal response to GLP-1(7-36)NH2; for EC50: geometric mean, read-out: hGLP-1R EC50, nM (SEM, n). In outline: as §1

Assay [3] addresses T2, hGCGR (Homo sapiens, UniProt P47871).
T2 construct: expressed in transfected cells
In words: Functional cAMP formation (HTRF) in HEK-293 clonal cells expressing hGCGR, 0.1% bovine casein, without or with 1.0% human serum albumin. Particulars: 37° C. In outline:
as §1

Setting [4] is: cAMP, 37° C., 0.1% bovine casein (no human serum albumin), read-out: hGIPR EC50, nM (SEM, n).
The mark [5] stands for this setting: HEK293, cAMP, 37° C., 0.1% bovine casein, arithmetic mean, read-out: hGLP-1R Emax, % ± SEM.
Setting [6] is: cAMP, 37° C., 0.1% bovine casein (no human serum albumin).
The mark [7] stands for this setting: cAMP, 0.1% bovine casein (no human serum albumin), geometric mean, read-out: hGCGR EC50, nM (SEM, n).
The mark [8] stands for this setting: HEK293, cAMP, 37° C., 0.1% bovine casein, arithmetic mean, read-out: hGIPR Emax, % ± SEM.

T2 sequence (P47871 26-477): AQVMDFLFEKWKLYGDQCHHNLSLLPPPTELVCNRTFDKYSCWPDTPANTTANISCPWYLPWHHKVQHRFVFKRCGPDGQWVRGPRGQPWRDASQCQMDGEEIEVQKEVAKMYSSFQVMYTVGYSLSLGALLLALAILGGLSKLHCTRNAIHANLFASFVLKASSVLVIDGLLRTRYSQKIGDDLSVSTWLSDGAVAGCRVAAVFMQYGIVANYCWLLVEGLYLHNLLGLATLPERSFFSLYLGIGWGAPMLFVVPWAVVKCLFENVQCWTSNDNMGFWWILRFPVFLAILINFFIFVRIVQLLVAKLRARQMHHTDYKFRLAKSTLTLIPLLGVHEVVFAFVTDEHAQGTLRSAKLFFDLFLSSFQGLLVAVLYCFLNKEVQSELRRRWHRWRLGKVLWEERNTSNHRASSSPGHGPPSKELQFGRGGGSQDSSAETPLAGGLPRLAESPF
Sequence of hGLP-1R (P43220 24-463): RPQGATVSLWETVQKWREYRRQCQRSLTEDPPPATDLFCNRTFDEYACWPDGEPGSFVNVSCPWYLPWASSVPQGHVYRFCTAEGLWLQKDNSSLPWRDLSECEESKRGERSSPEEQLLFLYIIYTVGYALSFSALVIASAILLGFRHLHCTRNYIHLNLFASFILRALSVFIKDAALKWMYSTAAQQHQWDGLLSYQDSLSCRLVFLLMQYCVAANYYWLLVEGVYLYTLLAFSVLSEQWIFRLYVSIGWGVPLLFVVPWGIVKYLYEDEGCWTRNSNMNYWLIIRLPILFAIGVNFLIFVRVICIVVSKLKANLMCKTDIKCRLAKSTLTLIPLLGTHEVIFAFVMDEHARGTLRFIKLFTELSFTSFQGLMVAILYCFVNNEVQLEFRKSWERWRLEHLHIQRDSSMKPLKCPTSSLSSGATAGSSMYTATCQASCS

With `CC[C@H](C)[C@H](NC(=O)[C@H](CCCN)NC(=O)[C@H](CC(=O)O)NC(=O)[C@H](CC(C)C)NC(=O)[C@](C)(CC(C)C)NC(=O)[C@@H](NC(=O)[C@H](CO)NC(=O)[C@H](Cc1ccncc1)NC(=O)[C@H](CC(=O)O)NC(=O)[C@H](CO)NC(=O)[C@@H](NC(=O)[C@](C)(Cc1ccccc1F)NC(=O)[C@@H](NC(=O)CNC(=O)[C@H](CCC(=O)O)NC(=O)C(C)(C)NC(=O)[C@@H](N)Cc1ccc(O)cc1)[C@@H](C)O)[C@@H](C)O)[C@@H](C)CC)C(=O)N[C@@H](C)C(=O)N[C@@H](CCC(N)=O)C(=O)NC(C)(C)C(=O)N[C@@H](CCCCNC(=O)COCCOCCNC(=O)COCCOCCNC(=O)CC[C@H](NC(=O)CCCCCCCCCCOc1ccc(C(=O)O)cc1)C(=O)O)C(=O)N[C@@H](Cc1ccccc1)C(=O)N[C@H](C(=O)N[C@H](CCC(=O)O)C(=O)N[C@@](C)(Cc1ccc(O)cc1)C(=O)N[C@@H](CC(C)C)C(=O)N[C@H](C(=O)N[C@@H](CCC(=O)O)C(=O)NCC(=O)NCC(=O)N1CCC[C@H]1C(=O)N[C@@H](CO)C(=O)N[C@@H](CO)C(=O)NCC(=O)N[C@@H](C)C(=O)N1CCC[C@H]1C(=O)N1CCC[C@H]1C(=O)N1CCC[C@H]1C(=O)N[C@@H](CO)C(=O)N[C@@H](CCCCNC(=O)COCCOCCNC(=O)COCCOCCNC(=O)CC[C@H](NC(=O)CCCCCCCCCCOc1ccc(C(=O)O)cc1)C(=O)O)C(N)=O)[C@@H](C)CC)[C@@H](C)CC` [Example 288], the maximum response (Emax) in assay [1] (HEK293, read-out: hGIPR Emax, % ± SEM, 0.1% bovine casein and 1.0% human serum albumin, 37° C.) turned out to be 85.2%; in assay [1] (HEK293, read-out: hGIPR Emax, % ± SEM, cAMP, 37° C., 0.1% bovine casein, arithmetic mean), 110%; in assay [2] (HEK293, read-out: hGLP-1R Emax, % ± SEM, 0.1% bovine casein and 1.0% human serum albumin, 37° C.) it was 123%. Further, the EC50 is 0.0219 nM in assay [1] (hGIPR EC50, nM (SEM, n), cAMP, 37° C., 0.1% bovine casein (no human serum albumin)); over 9950 nM in assay [3] (hGCGR EC50, nM (SEM, n), 0.1% bovine casein and 1.0% human serum albumin, geometric mean); over 9950 nM in assay [3] (hGCGR EC50, nM (SEM, n), cAMP, 0.1% bovine casein (no human serum albumin), geometric mean).

As to `CC[C@H](C)[C@H](NC(=O)[C@H](CC(C)C)NC(=O)[C@](C)(Cc1ccc(O)cc1)NC(=O)[C@H](CCCCNC(=O)CCCCCCCNC(=O)COCCOCCNC(=O)CC[C@H](NC(=O)CCCCCCCCCCCCC(=O)O)C(=O)O)NC(=O)[C@@H](NC(=O)[C@H](Cc1ccccc1)NC(=O)[C@H](CCCN)NC(=O)C(C)(C)NC(=O)[C@H](CCC(N)=O)NC(=O)[C@H](C)NC(=O)[C@H](CCC(N)=O)NC(=O)[C@H](CCCN)NC(=O)[C@H](CC(=O)O)NC(=O)[C@H](CC(C)C)NC(=O)[C@](C)(CC(C)C)NC(=O)[C@@H](NC(=O)C(C)(C)NC(=O)[C@H](Cc1ccncc1)NC(=O)[C@H](CC(=O)O)NC(=O)[C@H](CO)NC(=O)[C@@H](NC(=O)[C@](C)(Cc1ccccc1F)NC(=O)[C@@H](NC(=O)CNC(=O)[C@H](CCC(=O)O)NC(=O)C(C)(C)NC(=O)[C@@H](N)Cc1ccc(O)cc1)[C@@H](C)O)[C@@H](C)O)[C@@H](C)CC)[C@@H](C)CC)C(=O)N[C@@H](CCCCNC(=O)CCCCCCCNC(=O)COCCOCCNC(=O)CC[C@H](NC(=O)CCCCCCCCCCCCC(=O)O)C(=O)O)C(=O)NCC(=O)NCC(=O)N1CCC[C@H]1C(=O)N[C@@H](CO)C(=O)N[C@@H](CO)C(=O)NCC(=O)N[C@@H](C)C(=O)N1CCC[C@H]1C(=O)N1CCC[C@H]1C(=O)N1CCC[C@H]1C(=O)N[C@@H](CO)C(N)=O` [Example 452], the maximal response (Emax) in assay [1] (HEK293, cAMP, 37° C., 0.1% bovine casein and 1.0% human serum albumin, read-out: hGIPR Emax, % ± SEM) turned out to be 100%; in assay [2] (setting [5]), 117%. The 50% effective concentration (EC50) in assay [1] (setting [4]) is 0.0192 nM; in assay [2] (setting [6]), 0.259 nM; in assay [3] (setting [7]), over 9950 nM; in assay [3] (cAMP, 0.1% bovine casein and 1.0% human serum albumin, geometric mean (SEM, n), read-out: hGCGR EC50, nM (SEM, n)) it was over 9950 nM.

For the molecule `CCCCCCCCCCCC(=O)N[C@@H](CCC(=O)NCCOCCOCC(=O)NCCOCCOCC(=O)NCCCC[C@H](NC(=O)[C@H](CCCN)NC(=O)[C@H](CC(=O)O)NC(=O)[C@H](CC(C)C)NC(=O)[C@](C)(CC(C)C)NC(=O)[C@@H](NC(=O)[C@H](CO)NC(=O)[C@H](Cc1ccncc1)NC(=O)[C@H](CC(=O)O)NC(=O)[C@H](CO)NC(=O)[C@@H](NC(=O)[C@](C)(Cc1ccccc1F)NC(=O)[C@@H](NC(=O)CNC(=O)[C@H](CCC(=O)O)NC(=O)C(C)(C)NC(=O)[C@@H](N)Cc1ccc(O)cc1)[C@@H](C)O)[C@@H](C)O)[C@@H](C)CC)C(=O)N[C@@H](C)C(=O)N[C@@H](CCC(N)=O)C(=O)NC(C)(C)C(=O)N[C@@H](CCC(=O)O)C(=O)N[C@@H](Cc1ccccc1)C(=O)N[C@H](C(=O)N[C@H](CCC(=O)O)C(=O)N[C@@](C)(Cc1ccc(O)cc1)C(=O)N[C@@H](CC(C)C)C(=O)N[C@H](C(=O)N[C@@H](CCCCNC(=O)COCCOCCNC(=O)COCCOCCNC(=O)CC[C@H](NC(=O)CCCCCCCCCCC)C(=O)O)C(=O)NCC(=O)NCC(N)=O)[C@@H](C)CC)[C@@H](C)CC)C(=O)O` [Example 296] (H-Y[Aib]EGT[αMePhe(2-F)]TSD[4Pal]SI[αMeL]LD[Orn]K([AEEA-AEEA-γGlu-Lauroyl])AQ[Aib]EFI[dE][αMeY]LIK([AEEA-AEEA-γGlu-Lauroyl])GG-NH2; N-terminus assumed), the EC50 is 0.823 nM in assay [1] (0.1% bovine casein and 1.0% human serum albumin, 37° C., read-out: hGIPR EC50, nM (SEM, n)); 0.0121 nM in assay [1] (setting [4]); 13 nM in assay [2] (0.1% bovine casein and 1.0% human serum albumin, 37° C.); 0.108 nM in assay [2] (setting [6]); over 9950 nM in assay [3] (0.1% bovine casein and 1.0% human serum albumin, geometric mean, read-out: hGCGR EC50, nM (SEM, n)); over 9950 nM in assay [3] (setting [7]). Further, the Emax came out at 91.9% in assay [1] (HEK293, 0.1% bovine casein and 1.0% human serum albumin, 37° C., read-out: hGIPR Emax, % ± SEM); 100% in assay [1] (setting [8]); 109% in assay [2] (HEK293, 0.1% bovine casein and 1.0% human serum albumin, 37° C., read-out: hGLP-1R Emax, % ± SEM); 109% in assay [2] (setting [5]).

In the case of `CC[C@H](C)[C@H](NC(=O)[C@H](CC(C)C)NC(=O)[C@](C)(Cc1ccc(O)cc1)NC(=O)[C@@H](CCC(=O)O)NC(=O)[C@@H](NC(=O)[C@H](Cc1ccccc1)NC(=O)[C@H](CCC(=O)O)NC(=O)C(C)(C)NC(=O)[C@H](CCC(N)=O)NC(=O)[C@H](C)NC(=O)[C@H](CCCCNC(=O)COCCOCCNC(=O)CC[C@H](NC(=O)CCCCCCCCCCCCC(=O)O)C(=O)O)NC(=O)[C@H](CCCN)NC(=O)[C@H](CC(=O)O)NC(=O)[C@H](CC(C)C)NC(=O)[C@](C)(CC(C)C)NC(=O)[C@@H](NC(=O)C(C)(C)NC(=O)[C@H](Cc1ccc(O)cc1)NC(=O)[C@H](CC(=O)O)NC(=O)[C@H](CO)NC(=O)[C@@H](NC(=O)[C@](C)(Cc1ccccc1F)NC(=O)[C@@H](NC(=O)CNC(=O)[C@H](CCC(=O)O)NC(=O)C(C)(C)NC(=O)[C@@H](N)Cc1ccc(O)cc1)[C@@H](C)O)[C@@H](C)O)[C@@H](C)CC)[C@@H](C)CC)C(=O)N[C@@H](CCC(=O)O)C(=O)NCC(=O)NCC(=O)N1CCC[C@H]1C(=O)N[C@@H](CO)C(=O)N[C@@H](CO)C(=O)NCC(=O)N[C@@H](C)C(=O)N1CCC[C@H]1C(=O)N1CCC[C@H]1C(=O)N1CCC[C@H]1C(=O)N[C@@H](CO)C(=O)N[C@@H](CCCCNC(=O)COCCOCCNC(=O)CC[C@H](NC(=O)CCCCCCCCCCCCC(=O)O)C(=O)O)C(N)=O` [Example 368], the maximum response (Emax) in assay [1] (setting [8]) worked out at 105%. Further, the EC50 is 0.0271 nM in assay [1] (setting [4]), 0.411 nM in assay [2] (setting [6]) and over 9950 nM in assay [3] (setting [7]).
